The source of these data is patent US11738008B2, “N-methyl-D-aspartic acid receptor modulators” (Emory University, priority 2018, dated 2023).

pEC50: −log10 of the molar value. ≈ marks a conversion by molar mass, not a printed value. Where two headings read alike, the source gives them in different places.

One series addresses T1, 5-HT7 (Homo sapiens, UniProt P34969).
T1 construct: NIMH PDSP (assay provider)
The experiment in a line: NIMH PDSP radioligand binding, 5-HT7. As to conditions: read-out: Radioligand binding in 10 μM compound (% control). The procedure:
(§1) The NIMH PDSP is Directed by Bryan L. Roth at the University of North Carolina at Chapel Hill and Project Officer Jamie Driscoll at NIMH, Bethesda Md., USA. Radioligand binding was measured in the presence of 10 μM 1180-420 and 1180-447. […] For experimental details please refer to the PDSP web site https://pdsp.unc.edu/ims/investigator/web/. Both 1180-420 and 1180-447 were also tested at AMPA, nicotinic acetylcholine, serotonin, GABA, and glycine ion channels using a two-electrode voltage clamp assay.
(§2) Receptor binding profiles of compound 1180-447 were generously provided by the National Institute of Mental Health's Psychoactive Drug Screening Program, Contract # HHSN-271-2013-00017-C(NIMH PDSP). The NIMH PDSP is directed by Bryan L. Roth at the University of North Carolina at Chapel Hill and Project Officer Jamie Driscoll at NIMH, Bethesda Md., USA. Radioligand binding was measured in the presence of 10 μM 1180-447. […] For experimental details please refer to the PDSP web site https://pdsp.unc.edu/ims/investigator/web/.
(§3) The NIMH PDSP is Directed by Bryan L. Roth at the University of North Carolina at Chapel Hill and Project Officer Jamie Driscoll at NIMH, Bethesda Md., USA. Radioligand binding was measured in the presence of 10 μM 1180-420. […] For experimental details please refer to the PDSP web site https://pdsp.unc.edu/ims/investigator/web/.

For series [1] the following is noted: nephelometer, oocyte recording solution.
The target of a further series is T2, 5-HT3A (Homo sapiens, UniProt P46098).
T2 construct: expressed in transfected cells
In words: Off-target two-electrode voltage clamp assay, 5-HT3A. Conditions: 10 μM, mean ± SEM. The series is classed as cell-based. The method, then:
as §1
(Two-electrode voltage clamp holds a large cell at a set potential and records current.)

Another series addresses T3, GluA1 (Homo sapiens, UniProt P42261).
T3 construct: expressed in transfected cells
The experiment in a line: Off-target two-electrode voltage clamp assay, GluA1. As to conditions: 10 μM, mean ± SEM. The series is classed as cell-based. The procedure:
as §1

For another series, the target named is α2C (Homo sapiens, UniProt P18825). The experiment in a line: NIMH PDSP radioligand binding, α2C. As to conditions: read-out: Radioligand binding in 10 μM compound (% control). The procedure: as §1, §2, §3
Series [2] concerns the target translocator protein (peripheral benzodiazepine site) (Homo sapiens, UniProt P30536). In words: NIMH PDSP radioligand binding, translocator protein. Conditions: read-out: Radioligand binding in 10 μM compound (% control). The method, then: as §1, §2, §3
Series [3] deals with rat GluN1/GluN2D (Rattus norvegicus, UniProt P35439+Q62645). In words: Two-electrode voltage clamp recordings in Xenopus laevis oocytes, potentiation of GluN1/GluN2D. Type of series: cell-based. The procedure:
(§4) Xenopus laevis oocytes were purchased unfertilized from Ecocyte (Austin, Tex.). The oocytes were injected with mRNA to express recombinant rat GluN1/GluN2A, GluN1/GluN2B, GluN1/GluN2C, and GluN1/GluN2D and two-electrode voltage clamp (TEVC) recordings were performed. Drs. S. Heinemann (Salk Institute), S. Nakanishi (Kyoto University), and P. Seeburg (University of Heidelberg) provided the cDNAs for rat GluN1-1a (GenBank accession numbers U11418 and U08261, referred to as GluN1 henceforth), GluN2A (D13211), GluN2B (U11419), GluN2C (M91563), and GluN2D (D13213). GluN2C and GluN2D were altered according to literature precedent. […] To prevent the current increase typically seen during experiments with oocytes expressing GluN1/GluN2A receptors, the oocytes were either injected with 20 nL of 100 mM K-BAPTA (potassium 1,2-bis(o-aminophenoxy)ethane-N,N,N,N-tetraacetic acid) or pretreated with 50 μM BAPTA-AM (1,2-bis(o-aminophenoxy)ethane-N,N,N,N-tetraacetic acid tetraacetoxymethyl ester) for 10 minutes.

In series [4] the target is rat GluN1/GluN2D (Rattus norvegicus, UniProt Q62645). The series is described as above. Type of series: cell-based. The method, then:
as §4

The subject of another series is α1β2γδ-nACh. In words: Off-target two-electrode voltage clamp assay, α1β2γδ-nACh. The series is classed as cell-based. As to conditions: 10 μM, mean ± SEM. The procedure:
as §1

A further series has as its target T4, 5-HT1E (Homo sapiens, UniProt P28566).
T4 construct: NIMH PDSP (assay provider)
In words: NIMH PDSP radioligand binding, 5-HT1E. Conditions: read-out: Radioligand binding in 10 μM compound (% control). The procedure: as §1, §2, §3

The next series concerns the target H1 (Homo sapiens, UniProt P35367). In words: NIMH PDSP radioligand binding, H1. Conditions: read-out: Radioligand binding in 10 μM compound (% control). The method, then:
as §1, §2, §3

The next series addresses M4 (Homo sapiens, UniProt P08173). In words: NIMH PDSP radioligand binding, M4. As to conditions: read-out: Radioligand binding in 10 μM compound (% control). The method, then: as §1, §2, §3
For a further series, the target named is T5, α1β2γ2-GABAA (Homo sapiens, UniProt P14867+P18507+P47870).
T5 construct: expressed in transfected cells
The experiment in a line: Off-target two-electrode voltage clamp assay, α1β2γ2-GABAA. Type of series: cell-based. Conditions: 10 μM, mean ± SEM. The method, then: as §1

In a further series the target is β1 (Homo sapiens, UniProt P08588). The experiment in a line: NIMH PDSP radioligand binding, β1. As to conditions: read-out: Radioligand binding in 10 μM compound (% control). The method, then: as §1, §2, §3
A further series deals with T6, α1-Glycine (Homo sapiens, UniProt P23415).
T6 construct: expressed in transfected cells
The experiment in a line: Off-target two-electrode voltage clamp assay, α1-Glycine. Type of series: cell-based. Conditions: 10 μM, mean ± SEM. The procedure: as §1

What is called Solubility is how much of the substance goes into solution per volume. The term pEC50 denotes −log10 of the EC50, conventionally taken in molar units.

T4 sequence (P28566 whole entry, species assumed): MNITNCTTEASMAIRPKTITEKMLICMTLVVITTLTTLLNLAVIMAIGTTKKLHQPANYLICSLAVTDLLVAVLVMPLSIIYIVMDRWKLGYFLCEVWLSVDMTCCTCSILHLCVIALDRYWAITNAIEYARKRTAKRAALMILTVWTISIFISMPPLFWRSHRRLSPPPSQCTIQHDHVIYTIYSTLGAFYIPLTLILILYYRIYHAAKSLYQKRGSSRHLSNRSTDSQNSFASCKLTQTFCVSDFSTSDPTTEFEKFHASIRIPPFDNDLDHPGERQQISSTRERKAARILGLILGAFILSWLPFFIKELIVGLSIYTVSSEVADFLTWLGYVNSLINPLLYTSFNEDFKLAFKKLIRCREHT
rat GluN1/GluN2D (Rattus norvegicus, UniProt Q62645), sequence (Q62645 28-1323, other chains not shown): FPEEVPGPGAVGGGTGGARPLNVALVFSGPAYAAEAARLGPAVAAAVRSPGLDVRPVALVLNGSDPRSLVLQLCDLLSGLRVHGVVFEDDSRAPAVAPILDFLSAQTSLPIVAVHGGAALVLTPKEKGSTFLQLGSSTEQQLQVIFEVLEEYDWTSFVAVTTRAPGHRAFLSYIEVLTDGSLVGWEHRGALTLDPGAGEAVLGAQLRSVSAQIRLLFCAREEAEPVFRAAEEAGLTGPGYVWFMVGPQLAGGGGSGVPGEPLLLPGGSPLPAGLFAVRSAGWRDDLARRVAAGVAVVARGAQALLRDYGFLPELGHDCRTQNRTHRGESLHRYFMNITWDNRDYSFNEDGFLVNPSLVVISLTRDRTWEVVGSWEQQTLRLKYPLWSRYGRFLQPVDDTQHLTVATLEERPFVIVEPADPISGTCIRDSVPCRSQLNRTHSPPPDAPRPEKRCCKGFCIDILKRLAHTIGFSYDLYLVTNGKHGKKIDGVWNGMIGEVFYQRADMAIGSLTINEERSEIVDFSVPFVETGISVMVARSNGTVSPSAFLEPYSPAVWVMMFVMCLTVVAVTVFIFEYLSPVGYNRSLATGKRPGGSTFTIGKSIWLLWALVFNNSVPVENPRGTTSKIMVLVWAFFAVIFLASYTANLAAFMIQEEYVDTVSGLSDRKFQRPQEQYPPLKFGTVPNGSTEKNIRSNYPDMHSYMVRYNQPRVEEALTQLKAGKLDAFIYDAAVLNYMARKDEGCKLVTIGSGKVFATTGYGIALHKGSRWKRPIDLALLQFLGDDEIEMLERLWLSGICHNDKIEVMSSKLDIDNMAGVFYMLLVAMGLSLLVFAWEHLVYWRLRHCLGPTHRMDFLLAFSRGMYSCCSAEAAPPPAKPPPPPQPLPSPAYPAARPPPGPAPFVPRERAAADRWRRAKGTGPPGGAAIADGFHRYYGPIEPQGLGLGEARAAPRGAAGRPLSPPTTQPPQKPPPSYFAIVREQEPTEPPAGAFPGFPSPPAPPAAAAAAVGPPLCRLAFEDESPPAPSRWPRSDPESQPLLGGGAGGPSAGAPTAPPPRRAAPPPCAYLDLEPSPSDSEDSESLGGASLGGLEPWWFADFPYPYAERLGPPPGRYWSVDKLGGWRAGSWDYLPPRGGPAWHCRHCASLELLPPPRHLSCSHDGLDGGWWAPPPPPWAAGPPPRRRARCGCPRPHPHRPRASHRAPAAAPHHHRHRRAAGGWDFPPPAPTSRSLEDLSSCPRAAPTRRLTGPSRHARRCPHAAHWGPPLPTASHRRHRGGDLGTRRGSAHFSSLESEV
rat GluN1/GluN2D (Rattus norvegicus, UniProt P35439+Q62645), sequence (Q62645 28-1323, other chains not shown): as above
M4, sequence (P08173 whole entry): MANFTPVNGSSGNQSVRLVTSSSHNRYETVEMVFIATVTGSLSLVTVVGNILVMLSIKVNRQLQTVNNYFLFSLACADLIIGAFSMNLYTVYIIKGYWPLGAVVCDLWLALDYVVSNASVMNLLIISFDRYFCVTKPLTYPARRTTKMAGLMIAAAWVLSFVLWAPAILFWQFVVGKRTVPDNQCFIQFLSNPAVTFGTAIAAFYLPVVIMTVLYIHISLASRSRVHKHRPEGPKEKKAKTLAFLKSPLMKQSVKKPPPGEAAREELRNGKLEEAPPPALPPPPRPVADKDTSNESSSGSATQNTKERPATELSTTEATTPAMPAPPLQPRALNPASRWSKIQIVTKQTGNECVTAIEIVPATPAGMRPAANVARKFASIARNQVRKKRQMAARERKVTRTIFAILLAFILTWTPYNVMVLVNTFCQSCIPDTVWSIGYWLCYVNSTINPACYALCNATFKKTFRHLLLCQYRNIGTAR
α2C, sequence (P18825 whole entry): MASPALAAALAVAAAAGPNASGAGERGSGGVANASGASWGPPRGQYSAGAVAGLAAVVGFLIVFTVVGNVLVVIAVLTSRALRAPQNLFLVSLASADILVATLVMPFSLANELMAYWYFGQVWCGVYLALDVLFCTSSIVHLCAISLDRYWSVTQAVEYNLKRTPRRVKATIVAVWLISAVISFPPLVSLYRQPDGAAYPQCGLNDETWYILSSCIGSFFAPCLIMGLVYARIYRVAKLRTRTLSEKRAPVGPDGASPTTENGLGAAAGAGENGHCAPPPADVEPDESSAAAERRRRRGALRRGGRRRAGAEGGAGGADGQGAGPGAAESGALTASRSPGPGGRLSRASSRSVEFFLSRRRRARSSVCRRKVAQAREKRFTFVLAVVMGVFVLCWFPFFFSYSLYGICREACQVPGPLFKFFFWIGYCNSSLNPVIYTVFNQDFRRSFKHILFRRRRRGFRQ
T3 sequence (P42261 19-906, species assumed): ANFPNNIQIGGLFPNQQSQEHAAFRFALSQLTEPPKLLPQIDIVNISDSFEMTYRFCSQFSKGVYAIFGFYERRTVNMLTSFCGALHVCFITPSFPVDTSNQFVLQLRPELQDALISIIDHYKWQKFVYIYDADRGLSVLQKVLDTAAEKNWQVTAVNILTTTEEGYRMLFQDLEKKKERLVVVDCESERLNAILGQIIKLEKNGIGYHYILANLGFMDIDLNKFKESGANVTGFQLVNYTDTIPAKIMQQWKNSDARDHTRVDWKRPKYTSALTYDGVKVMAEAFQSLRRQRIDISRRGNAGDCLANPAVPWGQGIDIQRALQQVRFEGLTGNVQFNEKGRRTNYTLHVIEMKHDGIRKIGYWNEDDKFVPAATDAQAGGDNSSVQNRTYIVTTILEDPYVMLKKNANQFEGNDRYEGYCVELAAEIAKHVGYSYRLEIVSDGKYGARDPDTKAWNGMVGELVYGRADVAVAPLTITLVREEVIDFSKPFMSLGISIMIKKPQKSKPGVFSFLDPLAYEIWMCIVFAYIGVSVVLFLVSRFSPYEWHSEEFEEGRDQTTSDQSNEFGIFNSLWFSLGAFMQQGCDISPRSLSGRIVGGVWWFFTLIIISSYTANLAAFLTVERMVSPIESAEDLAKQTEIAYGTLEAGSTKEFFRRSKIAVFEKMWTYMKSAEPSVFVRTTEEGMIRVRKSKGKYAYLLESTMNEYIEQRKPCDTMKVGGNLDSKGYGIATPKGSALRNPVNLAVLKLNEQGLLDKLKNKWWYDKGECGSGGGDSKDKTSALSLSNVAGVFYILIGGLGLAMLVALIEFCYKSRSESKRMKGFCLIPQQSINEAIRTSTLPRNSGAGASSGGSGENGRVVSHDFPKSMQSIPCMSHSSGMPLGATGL
H1, sequence (P35367 whole entry): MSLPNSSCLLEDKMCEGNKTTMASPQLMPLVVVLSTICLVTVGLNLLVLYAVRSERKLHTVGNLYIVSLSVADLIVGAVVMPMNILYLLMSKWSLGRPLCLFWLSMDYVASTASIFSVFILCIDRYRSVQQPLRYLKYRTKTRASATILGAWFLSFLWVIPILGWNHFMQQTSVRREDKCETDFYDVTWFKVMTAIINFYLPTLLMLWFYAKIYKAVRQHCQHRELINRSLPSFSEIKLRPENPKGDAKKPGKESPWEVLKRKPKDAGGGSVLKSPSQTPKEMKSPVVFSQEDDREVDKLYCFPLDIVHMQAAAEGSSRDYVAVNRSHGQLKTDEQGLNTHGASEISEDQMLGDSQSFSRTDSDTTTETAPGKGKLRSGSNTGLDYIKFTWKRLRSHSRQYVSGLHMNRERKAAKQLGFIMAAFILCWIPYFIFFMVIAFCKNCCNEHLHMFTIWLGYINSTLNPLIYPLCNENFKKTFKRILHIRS
T1 sequence (P34969 whole entry, species assumed): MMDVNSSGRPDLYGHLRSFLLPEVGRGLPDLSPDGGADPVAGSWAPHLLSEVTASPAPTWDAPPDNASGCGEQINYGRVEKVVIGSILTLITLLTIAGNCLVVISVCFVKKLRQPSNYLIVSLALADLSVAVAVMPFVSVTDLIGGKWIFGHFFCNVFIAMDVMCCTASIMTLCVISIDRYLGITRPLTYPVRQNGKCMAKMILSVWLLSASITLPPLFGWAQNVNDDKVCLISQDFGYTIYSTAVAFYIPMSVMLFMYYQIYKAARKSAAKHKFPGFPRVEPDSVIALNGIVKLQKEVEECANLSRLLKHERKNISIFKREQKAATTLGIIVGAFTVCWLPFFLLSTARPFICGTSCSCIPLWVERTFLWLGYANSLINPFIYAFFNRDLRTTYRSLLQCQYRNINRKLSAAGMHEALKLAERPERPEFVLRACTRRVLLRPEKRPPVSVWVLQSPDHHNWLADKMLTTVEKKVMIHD
β1, sequence (P08588 whole entry): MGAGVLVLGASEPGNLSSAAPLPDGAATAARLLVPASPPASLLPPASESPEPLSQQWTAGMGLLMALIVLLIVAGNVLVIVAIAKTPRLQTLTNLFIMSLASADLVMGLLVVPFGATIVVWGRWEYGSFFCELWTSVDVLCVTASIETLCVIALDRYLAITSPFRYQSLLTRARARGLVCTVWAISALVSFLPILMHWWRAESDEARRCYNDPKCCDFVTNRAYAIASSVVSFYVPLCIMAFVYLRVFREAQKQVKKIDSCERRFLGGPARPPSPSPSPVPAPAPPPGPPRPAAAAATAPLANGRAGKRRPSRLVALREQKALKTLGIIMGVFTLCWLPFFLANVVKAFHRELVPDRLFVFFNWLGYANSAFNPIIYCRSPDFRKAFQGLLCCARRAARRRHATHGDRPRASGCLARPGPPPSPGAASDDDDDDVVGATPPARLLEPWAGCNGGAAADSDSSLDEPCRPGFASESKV

For `COc1ccc(OCC2c3cccn3CC(=O)N2Cc2cccc(C(F)(F)F)c2)cc1` (racemic) [1180-447, 1-((4-Methoxyphenoxy)methyl)-2-(3-(trifluoromethyl)benzyl)-1,2-dihydropyrrolo[1,2-a]pyrazin-3(4H)-one], the remaining activity at 10 µM at 5-HT7 came out at 83%; on α2C, 85%; in series [2], 84%; at 5-HT1E, 80%; on H1, 86%; at M4, 100%. In addition, the remaining activity at 10 µM at β1 was 80%. The “Solubility” value in series [1] turned out to be 57 µM (≈ 24.5 µg/mL). Further, the “% control response” value was determined as 98.1 ± 10.4 % control response on 5-HT3A, 96.8 ± 13.3 % control response at GluA1, 78.5 ± 4.5 % control response in the series on α1β2γδ-nACh and 81.7 ± 7.5 % control response at α1β2γ2-GABAA. Also, the EC50 on rat GluN1/GluN2D [3] (read-out: GluN2D pEC50 [95% CI] (converted)) is 1580 nM. The “GluN2D (max) (%)” value at rat GluN1/GluN2D [4] was “(396) %”.
As for `COc1ccc(OCC2c3cccn3CCN2C(=O)c2cccc(Cl)c2)cc1` (stereo not drawn) [1180-420, (3-Chlorophenyl)(1-((4-methoxyphenoxy)methyl)-3,4-dihydropyrrolo[1,2-a]pyrazin-2(1H)-yl)methanone], the remaining activity at 10 µM on 5-HT7 was 115%; at α2C, 83%; in series [2], 67%; on 5-HT1E, 78%; at H1 it was 74%; at M4 it was 84%. Moreover, the remaining activity at 10 µM on β1 was determined as 98%. The “% control response” value was 98.9 ± 13.7 % control response on GluA1, 77.6 ± 4.9 % control response on α1-Glycine, 93.4 ± 15.5 % control response in the series with α1β2γδ-nACh and 81.4 ± 8.5 % control response at α1β2γ2-GABAA. Moreover, on rat GluN1/GluN2D [3] (read-out: GluN2D EC50), the pEC50 was 5.64. Besides, on rat GluN1/GluN2D [4] (maximal response, current without potentiator = 100%), the “GluN2D Max %” value was determined as 374%.
